Measured values as given in patent US11542313B2, “Incretin analogs and uses thereof” (Eli Lilly and Company, priority 2017, dated 2023).
*1 amine or outer side, *2 acyl side, *3 side chain or, on linkers, in order; H or OH if unused. Where a SMILES comes first, the peptide text is derived from it. Side-chain parts run from the residue outwards. [ ]: non-standard residue; d: D form. The star is where a group is joined. C20 diacid = O=C(O)CCCCCCCCCCCCCCCCCCC(=O)*; γGlu = O=C(O)[C@H](CCC(=O)[*:2])N[*:1]; αMeL = CC(C)C[C@](C)(N)C(=O)O; AEEA = NCCOCCOCC(=O)O; Aib = CC(C)(N)C(=O)O

Assays:
[1] = target: T1, human GIP receptor (GIPR) (Homo sapiens, UniProt P48546); assay: Radioligand competition binding (SPA), human GIPR membranes
T1 construct: expressed in transfected cells; host or cells: HEK293 (membranes)
T1 sequence (P48546 22-466): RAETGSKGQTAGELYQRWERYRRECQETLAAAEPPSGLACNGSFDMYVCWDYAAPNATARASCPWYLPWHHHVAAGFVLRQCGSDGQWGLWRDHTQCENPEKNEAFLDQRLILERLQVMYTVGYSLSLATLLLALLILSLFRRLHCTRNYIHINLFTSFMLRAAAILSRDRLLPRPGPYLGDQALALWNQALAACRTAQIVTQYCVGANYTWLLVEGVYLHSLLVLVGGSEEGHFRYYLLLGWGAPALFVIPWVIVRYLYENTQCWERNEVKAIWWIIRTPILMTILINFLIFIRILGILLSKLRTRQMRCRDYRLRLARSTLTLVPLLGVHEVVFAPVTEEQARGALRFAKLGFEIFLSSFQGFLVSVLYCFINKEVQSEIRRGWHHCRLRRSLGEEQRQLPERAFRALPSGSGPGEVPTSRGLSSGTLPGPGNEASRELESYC
Excerpt: (§1) Radioligand competition binding assays are run to determine the equilibrium dissociation constant for exemplary compounds and comparator molecules.
(§2) Competition curves are plotted as the percent specific inhibition (y-axis) versus log concentration of compound (x-axis) and analyzed using a four parameter nonlinear regression fit with variable slope (ABase or Genedata).

[2] = Pharmacokinetics in male Sprague Dawley rats; details: for CL/F / Tmax / half-life: male, Sprague-Dawley, rat, plasma, sc, 100 nmol/kg; for AUCINF_D_obs / Cmax/D: single subcutaneous 100 nMol/kg, male Sprague Dawley rats, n = 3
Experimental: The pharmacokinetics of the exemplary analogs are evaluated following a single subcutaneous administration of 100 nM/kg to male Sprague Dawley rats. Blood samples are collected over 120 hours, and resulting individual plasma concentrations are used to calculate pharmacokinetic parameters. Peptide plasma (K3 EDTA) concentrations are determined using a qualified LC/MS method that measured the intact mass of the analog. Each peptide and an analog as an internal standard are extracted from 100% specie specified plasma using methanol with 0.1% formic acid. A Thermo Q-Exactive, High Resolution Instrument, and a Thermo Easy Spray PepMap are combined for LC/MS detection.

[3] = target: T2, human glucagon receptor (GcgR) (Homo sapiens, UniProt P47871); assay: Radioligand competition binding (SPA), human GcgR membranes
T2 construct: expressed in transfected cells; host or cells: HEK293 (membranes)
Excerpt: as §1, §2

GLP-1 receptor (GLP-1R) = target: T3, GLP-1 receptor (GLP-1R) (Homo sapiens, UniProt P43220); assay: Radioligand competition binding (SPA), human GLP-1R membranes
T3 construct: expressed in transfected cells; host or cells: HEK293 (membranes)
Excerpt: as §1, §2

T3 sequence (P43220 24-463): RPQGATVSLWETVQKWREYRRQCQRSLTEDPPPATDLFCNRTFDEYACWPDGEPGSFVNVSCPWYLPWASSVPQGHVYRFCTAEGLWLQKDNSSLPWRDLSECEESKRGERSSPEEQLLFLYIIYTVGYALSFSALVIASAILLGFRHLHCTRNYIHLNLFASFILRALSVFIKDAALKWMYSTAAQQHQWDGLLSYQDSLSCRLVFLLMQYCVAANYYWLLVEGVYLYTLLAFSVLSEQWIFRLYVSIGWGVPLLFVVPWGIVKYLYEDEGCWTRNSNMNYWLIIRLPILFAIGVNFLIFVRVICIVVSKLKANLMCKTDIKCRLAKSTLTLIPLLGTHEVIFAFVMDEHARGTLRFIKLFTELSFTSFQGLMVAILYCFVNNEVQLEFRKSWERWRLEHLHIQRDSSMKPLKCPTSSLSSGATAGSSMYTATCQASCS
T2 sequence (P47871 26-477): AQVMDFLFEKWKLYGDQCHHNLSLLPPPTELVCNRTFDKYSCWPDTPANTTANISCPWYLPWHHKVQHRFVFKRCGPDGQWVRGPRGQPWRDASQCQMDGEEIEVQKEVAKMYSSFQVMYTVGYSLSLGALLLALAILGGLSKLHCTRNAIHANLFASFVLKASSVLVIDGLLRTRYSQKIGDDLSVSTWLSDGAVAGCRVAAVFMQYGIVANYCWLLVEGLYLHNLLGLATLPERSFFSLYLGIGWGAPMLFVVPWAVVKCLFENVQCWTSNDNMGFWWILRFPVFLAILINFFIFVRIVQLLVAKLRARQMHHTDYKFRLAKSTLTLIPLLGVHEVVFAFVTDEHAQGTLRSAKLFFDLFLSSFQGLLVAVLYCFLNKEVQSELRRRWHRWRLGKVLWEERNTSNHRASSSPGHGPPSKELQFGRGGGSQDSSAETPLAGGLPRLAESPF

SMILES | Ki [1] [nM] | CL/F [2] [mL/h/kg] | Tmax [2] [h] | half-life [2] [h] | AUCINF_D_obs [2] [hr*kg*nmol/L/nmol] | Cmax/D [2] [kg*nmol/L/nmol] | Ki [3] [nM] | Ki (GLP-1 receptor (GLP-1R)) [nM]
CC[C@H](C)[C@H](NC(=O)[C@H](Cc1ccccc1)NC(=O)[C@H](C)NC(=O)[C@H](Cc1c[nH]cn1)NC(=O)[C@H](CCC(N)=O)NC(=O)[C@H](C)NC(=O)[C@H](CCCCNC(=O)COCCOCCNC(=O)CC[C@H](NC(=O)CCCCCCCCCCCCCCCCCCC(=O)O)C(=O)O)NC(=O)[C@H](CCCCN)NC(=O)[C@H](CC(=O)O)NC(=O)[C@H](CC(C)C)NC(=O)[C@](C)(CC(C)C)NC(=O)[C@@H](NC(=O)[C@H](CO)NC(=O)[C@H](Cc1ccc(O)cc1)NC(=O)[C@H](CC(=O)O)NC(=O)[C@H](CO)NC(=O)[C@@H](NC(=O)[C@H](Cc1ccccc1)NC(=O)[C@@H](NC(=O)CNC(=O)[C@H](CCC(N)=O)NC(=O)C(C)(C)NC(=O)[C@@H](N)Cc1ccc(O)cc1)[C@@H](C)O)[C@@H](C)O)[C@@H](C)CC)C(=O)N[C@@H](CCC(=O)O)C(=O)N[C@@H](Cc1ccc(O)cc1)C(=O)N[C@@H](CC(C)C)C(=O)N[C@@H](CC(C)C)C(=O)N[C@@H](CCC(=O)O)C(=O)NCC(=O)NCC(=O)N1CCC[C@H]1C(=O)N[C@@H](CO)C(=O)N[C@@H](CO)C(=O)NCC(=O)N[C@@H](C)C(=O)N1CCC[C@H]1C(=O)N1CCC[C@H]1C(=O)N1CCC[C@H]1C(=O)N[C@@H](CO)C(N)=O [Example 10] (H-Y[Aib]QGTFTSDYSI[αMeL]LDKK([AEEA-γGlu-C20 diacid])AQHAFIEYLLEGGPSSGAPPPS-NH2; N-terminus assumed) | 0.118 | 4.9 | 24 | 23.4 | 203.5 | 3.1 | 7.37 | 12
CC[C@H](C)[C@H](NC(=O)[C@H](Cc1ccccc1)NC(=O)[C@H](C)NC(=O)C(C)(C)NC(=O)[C@H](CCC(N)=O)NC(=O)[C@H](C)NC(=O)[C@H](CCCCNC(=O)COCCOCCNC(=O)CC[C@H](NC(=O)CCCCCCCCCCCCCCCCCCC(=O)O)C(=O)O)NC(=O)[C@H](CCCCN)NC(=O)[C@H](CC(=O)O)NC(=O)[C@H](CC(C)C)NC(=O)[C@](C)(CC(C)C)NC(=O)[C@@H](NC(=O)[C@H](CO)NC(=O)[C@H](Cc1ccc(O)cc1)NC(=O)[C@H](CC(=O)O)NC(=O)[C@H](CO)NC(=O)[C@@H](NC(=O)[C@H](Cc1ccccc1)NC(=O)[C@@H](NC(=O)CNC(=O)[C@H](CCC(N)=O)NC(=O)C(C)(C)NC(=O)[C@@H](N)Cc1ccc(O)cc1)[C@@H](C)O)[C@@H](C)O)[C@@H](C)CC)C(=O)N[C@@H](CCC(=O)O)C(=O)N[C@@H](Cc1ccc(O)cc1)C(=O)N[C@@H](CC(C)C)C(=O)N[C@@H](CC(C)C)C(=O)N[C@@H](CCC(=O)O)C(=O)NCC(=O)NCC(=O)N1CCC[C@H]1C(=O)N[C@@H](CO)C(=O)N[C@@H](CO)C(=O)NCC(=O)N[C@@H](C)C(=O)N1CCC[C@H]1C(=O)N1CCC[C@H]1C(=O)N1CCC[C@H]1C(=O)N[C@@H](CO)C(N)=O [Example 12] | – | 5.1 | 24 | 26.5 | 197.1 | 3.7 | 5.6 | –
CC[C@H](C)[C@H](NC(=O)[C@H](Cc1ccccc1)NC(=O)[C@H](C)NC(=O)C(C)(C)NC(=O)[C@H](CCC(N)=O)NC(=O)[C@H](C)NC(=O)[C@H](CCCCNC(=O)COCCOCCNC(=O)CC[C@H](NC(=O)CCCCCCCCCCCCCCCCCCC(=O)O)C(=O)O)NC(=O)[C@H](CCCCN)NC(=O)[C@H](CC(=O)O)NC(=O)[C@H](CC(C)C)NC(=O)[C@H](CC(C)C)NC(=O)[C@@H](NC(=O)[C@H](CO)NC(=O)[C@H](Cc1ccc(O)cc1)NC(=O)[C@H](CC(=O)O)NC(=O)[C@H](CO)NC(=O)[C@@H](NC(=O)[C@H](Cc1ccccc1)NC(=O)[C@@H](NC(=O)CNC(=O)[C@H](CCC(N)=O)NC(=O)C(C)(C)NC(=O)[C@@H](N)Cc1ccc(O)cc1)[C@@H](C)O)[C@@H](C)O)[C@@H](C)CC)C(=O)N[C@@H](CCC(=O)O)C(=O)N[C@@H](Cc1ccc(O)cc1)C(=O)N[C@@H](CC(C)C)C(=O)N[C@@H](CC(C)C)C(=O)N[C@@H](CCC(=O)O)C(=O)NCC(=O)NCC(=O)N1CCC[C@H]1C(=O)N[C@@H](CO)C(=O)N[C@@H](CO)C(=O)NCC(=O)N[C@@H](C)C(=O)N1CCC[C@H]1C(=O)N1CCC[C@H]1C(=O)N1CCC[C@H]1C(=O)N[C@@H](CO)C(N)=O [Example 18] | 0.0835 | 3.6 | 24 | 34.8 | 284.3 | 5.0 | 5.71 | 8.06
CC[C@H](C)[C@H](NC(=O)[C@H](Cc1ccccc1)NC(=O)[C@H](C)NC(=O)C(C)(C)NC(=O)[C@H](CCC(N)=O)NC(=O)[C@H](C)NC(=O)[C@H](CCCCNC(=O)COCCOCCNC(=O)COCCOCCNC(=O)CC[C@H](NC(=O)CCCCCCCCCCCCCCCCCCC(=O)O)C(=O)O)NC(=O)[C@H](CCCCN)NC(=O)[C@H](CC(=O)O)NC(=O)[C@H](CC(C)C)NC(=O)[C@](C)(CC(C)C)NC(=O)[C@@H](NC(=O)[C@H](CO)NC(=O)[C@H](Cc1ccc(O)cc1)NC(=O)[C@H](CC(=O)O)NC(=O)[C@H](CO)NC(=O)[C@@H](NC(=O)[C@H](Cc1ccccc1)NC(=O)[C@@H](NC(=O)CNC(=O)[C@H](CCC(N)=O)NC(=O)C(C)(C)NC(=O)[C@@H](N)Cc1ccc(O)cc1)[C@@H](C)O)[C@@H](C)O)[C@@H](C)CC)C(=O)N[C@@H](CCC(=O)O)C(=O)N[C@@H](Cc1ccc(O)cc1)C(=O)N[C@@H](CC(C)C)C(=O)N[C@@H](CC(C)C)C(=O)N[C@@H](CCC(=O)O)C(=O)NCC(=O)NCC(=O)N1CCC[C@H]1C(=O)N[C@@H](CO)C(=O)N[C@@H](CO)C(=O)NCC(=O)N[C@@H](C)C(=O)N1CCC[C@H]1C(=O)N1CCC[C@H]1C(=O)N1CCC[C@H]1C(=O)N[C@@H](CO)C(N)=O [Example 11] | 0.089 | 4.7 | 20 | 24.3 | 215.1 | 3.7 | 10.8 | 9.97
CC[C@H](C)[C@H](NC(=O)[C@H](Cc1ccccc1)NC(=O)[C@H](C)NC(=O)[C@H](Cc1c[nH]cn1)NC(=O)[C@H](CCC(N)=O)NC(=O)[C@H](C)NC(=O)[C@H](CCCCNC(=O)COCCOCCNC(=O)COCCOCCNC(=O)CC[C@H](NC(=O)CCCCCCCCCCCCCCCCCCC(=O)O)C(=O)O)NC(=O)[C@H](CCCCN)NC(=O)[C@H](CC(=O)O)NC(=O)[C@H](CC(C)C)NC(=O)[C@](C)(CC(C)C)NC(=O)[C@@H](NC(=O)[C@H](CO)NC(=O)[C@H](Cc1ccc(O)cc1)NC(=O)[C@H](CC(=O)O)NC(=O)[C@H](CO)NC(=O)[C@@H](NC(=O)[C@H](Cc1ccccc1)NC(=O)[C@@H](NC(=O)CNC(=O)[C@H](CCC(N)=O)NC(=O)C(C)(C)NC(=O)[C@@H](N)Cc1ccc(O)cc1)[C@@H](C)O)[C@@H](C)O)[C@@H](C)CC)C(=O)N[C@@H](CCC(=O)O)C(=O)N[C@@H](Cc1ccc(O)cc1)C(=O)N[C@@H](CC(C)C)C(=O)N[C@@H](CC(C)C)C(=O)N[C@@H](CCC(=O)O)C(=O)NCC(=O)NCC(=O)N1CCC[C@H]1C(=O)N[C@@H](CO)C(=O)N[C@@H](CO)C(=O)NCC(=O)N[C@@H](C)C(=O)N1CCC[C@H]1C(=O)N1CCC[C@H]1C(=O)N1CCC[C@H]1C(=O)N[C@@H](CO)C(N)=O [Example 7] (H-Y[Aib]QGTFTSDYSI[αMeL]LDKK([AEEA-AEEA-γGlu-C20 diacid])AQHAFIEYLLEGGPSSGAPPPS-NH2) | 0.11 | – | – | – | – | – | 16.3 | 21.4
CC[C@H](C)[C@H](NC(=O)[C@H](Cc1ccccc1)NC(=O)[C@H](C)NC(=O)[C@H](CCC(N)=O)NC(=O)[C@H](C)NC(=O)[C@H](C)NC(=O)[C@H](CCCCNC(=O)COCCOCCNC(=O)COCCOCCNC(=O)CC[C@H](NC(=O)CCCCCCCCCCCCCCCCCCC(=O)O)C(=O)O)NC(=O)[C@H](CCCCN)NC(=O)[C@H](CC(=O)O)NC(=O)[C@H](CC(C)C)NC(=O)[C@](C)(CC(C)C)NC(=O)[C@@H](NC(=O)[C@H](CO)NC(=O)[C@H](Cc1ccc(O)cc1)NC(=O)[C@H](CC(=O)O)NC(=O)[C@H](CO)NC(=O)[C@@H](NC(=O)[C@H](Cc1ccccc1)NC(=O)[C@@H](NC(=O)CNC(=O)[C@H](CCC(N)=O)NC(=O)C(C)(C)NC(=O)[C@@H](N)Cc1ccc(O)cc1)[C@@H](C)O)[C@@H](C)O)[C@@H](C)CC)C(=O)N[C@@H](CCC(=O)O)C(=O)N[C@@H](Cc1ccc(O)cc1)C(=O)N[C@@H](CC(C)C)C(=O)N[C@@H](CC(C)C)C(=O)N[C@@H](CCC(=O)O)C(=O)NCC(=O)NCC(=O)N1CCC[C@H]1C(=O)N[C@@H](CO)C(=O)N[C@@H](CO)C(=O)NCC(=O)N[C@@H](C)C(=O)N1CCC[C@H]1C(=O)N1CCC[C@H]1C(=O)N1CCC[C@H]1C(=O)N[C@@H](CO)C(N)=O [Example 6] (H-Y[Aib]QGTFTSDYSI[αMeL]LDKK([AEEA-AEEA-γGlu-C20 diacid])AAQAFIEYLLEGGPSSGAPPPS-NH2; N-terminus assumed) | 0.249 | – | – | – | – | – | 0.835 | 36.7
